Broadly, the IC50 is the concentration at which inhibition is half-maximal. A high value points to weaker potency in that assay.

Among the targets are MAPK14 (human) (UniProt Q16539); CDK2 (human) (UniProt P24941); PIK3CA (human) (UniProt P42336); PIK3CG (human) (UniProt P48736).
What all share (assay): Enzyme Assay

Chain of MAPK14 (human) (Q16539 whole entry, looked up): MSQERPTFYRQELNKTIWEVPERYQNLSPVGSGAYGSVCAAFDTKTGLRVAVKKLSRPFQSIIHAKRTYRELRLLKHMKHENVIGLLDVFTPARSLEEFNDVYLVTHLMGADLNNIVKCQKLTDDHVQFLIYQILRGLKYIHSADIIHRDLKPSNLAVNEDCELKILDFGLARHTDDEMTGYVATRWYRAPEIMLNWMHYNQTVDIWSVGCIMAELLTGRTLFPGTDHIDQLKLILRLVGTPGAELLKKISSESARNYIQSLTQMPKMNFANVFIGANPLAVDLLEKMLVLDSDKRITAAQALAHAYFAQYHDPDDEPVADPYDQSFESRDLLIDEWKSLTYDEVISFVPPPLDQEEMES
Chain of PIK3CG (human) (P48736 whole entry, looked up): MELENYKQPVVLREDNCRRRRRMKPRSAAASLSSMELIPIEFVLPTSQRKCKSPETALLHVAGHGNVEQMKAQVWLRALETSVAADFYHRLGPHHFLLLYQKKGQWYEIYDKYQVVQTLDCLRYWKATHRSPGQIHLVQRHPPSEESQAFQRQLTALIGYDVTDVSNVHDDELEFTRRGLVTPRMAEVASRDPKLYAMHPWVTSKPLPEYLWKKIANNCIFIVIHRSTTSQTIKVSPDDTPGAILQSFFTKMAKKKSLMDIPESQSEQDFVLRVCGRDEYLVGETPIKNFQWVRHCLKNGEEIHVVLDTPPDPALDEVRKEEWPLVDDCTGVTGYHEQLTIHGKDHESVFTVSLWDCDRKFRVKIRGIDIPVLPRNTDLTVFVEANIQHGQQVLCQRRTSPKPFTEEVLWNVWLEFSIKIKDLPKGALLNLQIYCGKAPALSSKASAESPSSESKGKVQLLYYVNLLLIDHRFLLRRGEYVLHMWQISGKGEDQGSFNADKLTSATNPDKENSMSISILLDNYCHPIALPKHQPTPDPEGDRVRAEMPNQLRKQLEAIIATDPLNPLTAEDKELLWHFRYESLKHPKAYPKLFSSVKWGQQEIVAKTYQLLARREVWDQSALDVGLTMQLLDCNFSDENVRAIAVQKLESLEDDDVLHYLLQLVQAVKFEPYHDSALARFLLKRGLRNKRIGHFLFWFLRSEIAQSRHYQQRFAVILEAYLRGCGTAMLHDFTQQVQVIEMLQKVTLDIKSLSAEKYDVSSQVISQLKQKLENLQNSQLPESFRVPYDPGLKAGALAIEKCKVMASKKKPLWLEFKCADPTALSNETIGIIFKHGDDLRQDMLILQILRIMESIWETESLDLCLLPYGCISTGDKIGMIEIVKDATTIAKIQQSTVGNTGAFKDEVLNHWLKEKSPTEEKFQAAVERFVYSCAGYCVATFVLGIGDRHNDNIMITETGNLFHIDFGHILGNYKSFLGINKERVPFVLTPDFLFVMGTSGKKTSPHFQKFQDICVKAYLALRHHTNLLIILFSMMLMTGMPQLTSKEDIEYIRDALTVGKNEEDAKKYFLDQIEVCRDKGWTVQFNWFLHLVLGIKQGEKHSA
Chain of PIK3CA (human) (P42336 whole entry, looked up): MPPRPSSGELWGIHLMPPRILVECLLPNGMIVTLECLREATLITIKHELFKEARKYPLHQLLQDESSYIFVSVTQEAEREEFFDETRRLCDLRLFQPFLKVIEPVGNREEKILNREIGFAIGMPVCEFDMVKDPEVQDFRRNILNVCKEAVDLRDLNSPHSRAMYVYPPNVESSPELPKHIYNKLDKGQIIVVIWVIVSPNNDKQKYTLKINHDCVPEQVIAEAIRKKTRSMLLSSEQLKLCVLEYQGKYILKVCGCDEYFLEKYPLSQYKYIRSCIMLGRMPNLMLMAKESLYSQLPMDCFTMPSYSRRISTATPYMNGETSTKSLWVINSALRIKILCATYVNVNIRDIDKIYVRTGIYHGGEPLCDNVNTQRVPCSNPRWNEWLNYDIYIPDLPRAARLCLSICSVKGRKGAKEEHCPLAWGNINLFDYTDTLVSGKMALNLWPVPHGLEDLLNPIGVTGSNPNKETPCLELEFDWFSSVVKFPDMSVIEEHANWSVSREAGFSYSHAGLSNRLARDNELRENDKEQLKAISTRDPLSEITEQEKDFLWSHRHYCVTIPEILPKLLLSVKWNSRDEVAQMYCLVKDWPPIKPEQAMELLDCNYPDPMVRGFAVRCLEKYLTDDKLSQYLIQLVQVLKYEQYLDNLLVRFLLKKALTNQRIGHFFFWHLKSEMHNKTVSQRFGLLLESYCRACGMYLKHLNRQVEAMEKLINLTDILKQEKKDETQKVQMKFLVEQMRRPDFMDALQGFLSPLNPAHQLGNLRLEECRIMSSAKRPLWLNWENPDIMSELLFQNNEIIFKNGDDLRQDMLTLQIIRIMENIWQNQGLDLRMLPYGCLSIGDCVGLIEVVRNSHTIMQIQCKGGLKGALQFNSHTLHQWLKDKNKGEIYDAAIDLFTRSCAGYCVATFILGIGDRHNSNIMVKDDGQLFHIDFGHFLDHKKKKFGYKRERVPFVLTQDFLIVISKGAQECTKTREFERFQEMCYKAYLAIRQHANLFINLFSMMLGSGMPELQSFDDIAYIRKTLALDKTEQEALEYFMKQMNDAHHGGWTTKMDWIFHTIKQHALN

For the molecule `COc1cc2c(cc1OC1CCN(C)CC1)ncc1c3ccc(C#N)cc3[nH]c21`, the 50% inhibitory concentration (IC50) against MAPK14 (human) worked out at 6.82 µM; against CDK2 (human), 5.7 µM.
Turning to `COc1cc2ncc3c4ccc(C#N)cc4[nH]c3c2cc1OC`, the 50% inhibitory concentration (IC50) against MAPK14 (human) is greater than 88.8 µM; against CDK2 (human), 0.599 µM; at PIK3CA (human), 1.7 µM; against PIK3CG (human) it was 3.4 µM.
In the case of `COc1cc2c(cc1OCCN(C)C)ncc1c3ccc(C#N)cc3[nH]c21`, the IC50 was greater than 49.4 µM at MAPK14 (human) and 1.01 µM against CDK2 (human).
Turning to `COc1cc2c(cc1OCC1CCCCN1C)ncc1c3ccc(C#N)cc3[nH]c21` (stereo not drawn), the 50% inhibitory concentration (IC50) on MAPK14 (human) was greater than 50 µM; at CDK2 (human), 1.1 µM.
In the same order, the values of `COCCOc1cc2ncc3c4ccc(C#N)cc4[nH]c3c2cc1OC` are greater than 45.6 µM and 1.21 µM.
For the molecule `COc1cc2c(cc1OCCCN(C)C)ncc1c3ccc(C#N)cc3[nH]c21`, the IC50 was greater than 36.2 µM on MAPK14 (human), 4.35 µM at CDK2 (human), greater than 7.25 µM at PIK3CA (human) and greater than 7.25 µM at PIK3CG (human).
Take `COc1cc2c(cc1OCCCN1CCN(C)CC1)ncc1c3ccc(C#N)cc3[nH]c21`: the half-maximal inhibitory concentration (IC50) against MAPK14 (human) was greater than 47 µM; at CDK2 (human), 0.479 µM.

(Values after the Kinase Knowledgebase extract (Sharma et al. 2016).)
